25 compounds from patent US20230117034A1, “PYRAZOLOTRIAZINES” (Bayer Aktiengesellschaft, priority 2019, published 2023) can be followed below.

For experiment [1], the target named is T1, CYCLIN K (nuclear staining in CAL-120 cells) (Homo sapiens, UniProt O75909).
T1 construct: endogenous in cells; host or cells: CAL-120 human breast cancer cells (DSMZ ACC 459)
The experiment can be described thus: CYCLIN K nuclear protein level: immunofluorescence high content analysis (CAL-120). In kind it is cell-based. As to conditions: 24 h, 50% reduction of nuclear CCNK staining intensity, median, read-out: CYCLIN K degradation IF, DC50-[mol/l] (median). In short, it runs like this: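 Readout is automated confocal image analysis of nuclear cyclin K immunofluorescence (Hoechst nuclei) after PFA fixation. Cells were CAL-120, exposed to compound dose-response 24 h at 37 °C; values are DC50 for halving nuclear CCNK signal relative to DMSO and control wells.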

For experiment [2], the target named is T2, CDK2/CycE (Homo sapiens, UniProt P24941).
T2 construct: purchased ProQinase GmbH (Freiburg, Germany); host or cells: insect cells (Sf9)
In words: CDK2/CycE kinase assay (TR-FRET, 2 mM ATP). In kind it is biochemical. As to conditions: 2 mM ATP (high ATP); median; read-out: CDK2/CyclinE, 2 mM ATP (high ATP), IC50 (median). The method in brief:
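Biotin-peptide phosphorylation (0.75 µM substrate, 2 mM ATP final, 25 min, 22 °C) by Sf9-expressed GST-CDK2/GST-CycE, after a 15-min compound pre-binding step. Inhibition scaled between enzyme-free (100%) and uninhibited (0%) wells.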
For orientation: Time-resolved FRET reads energy transfer from a long-lived donor to a nearby acceptor.

T1 sequence (O75909 whole entry): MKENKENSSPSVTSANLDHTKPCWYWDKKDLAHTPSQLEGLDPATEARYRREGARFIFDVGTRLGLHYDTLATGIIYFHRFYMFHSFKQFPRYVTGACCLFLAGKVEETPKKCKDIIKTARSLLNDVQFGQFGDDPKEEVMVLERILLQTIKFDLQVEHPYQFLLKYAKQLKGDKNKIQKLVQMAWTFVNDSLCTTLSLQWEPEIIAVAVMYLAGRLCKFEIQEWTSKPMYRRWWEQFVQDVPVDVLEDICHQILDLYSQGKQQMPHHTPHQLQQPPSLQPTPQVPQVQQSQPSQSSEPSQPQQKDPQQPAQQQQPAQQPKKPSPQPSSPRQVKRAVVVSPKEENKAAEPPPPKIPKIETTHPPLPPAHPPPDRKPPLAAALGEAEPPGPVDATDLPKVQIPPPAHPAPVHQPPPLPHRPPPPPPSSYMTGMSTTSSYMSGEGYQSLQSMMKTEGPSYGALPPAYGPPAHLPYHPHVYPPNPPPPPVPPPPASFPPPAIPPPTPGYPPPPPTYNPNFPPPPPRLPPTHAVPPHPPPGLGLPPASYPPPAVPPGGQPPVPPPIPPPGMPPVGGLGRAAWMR
T1 sequence (Q9NYV4 whole entry partner): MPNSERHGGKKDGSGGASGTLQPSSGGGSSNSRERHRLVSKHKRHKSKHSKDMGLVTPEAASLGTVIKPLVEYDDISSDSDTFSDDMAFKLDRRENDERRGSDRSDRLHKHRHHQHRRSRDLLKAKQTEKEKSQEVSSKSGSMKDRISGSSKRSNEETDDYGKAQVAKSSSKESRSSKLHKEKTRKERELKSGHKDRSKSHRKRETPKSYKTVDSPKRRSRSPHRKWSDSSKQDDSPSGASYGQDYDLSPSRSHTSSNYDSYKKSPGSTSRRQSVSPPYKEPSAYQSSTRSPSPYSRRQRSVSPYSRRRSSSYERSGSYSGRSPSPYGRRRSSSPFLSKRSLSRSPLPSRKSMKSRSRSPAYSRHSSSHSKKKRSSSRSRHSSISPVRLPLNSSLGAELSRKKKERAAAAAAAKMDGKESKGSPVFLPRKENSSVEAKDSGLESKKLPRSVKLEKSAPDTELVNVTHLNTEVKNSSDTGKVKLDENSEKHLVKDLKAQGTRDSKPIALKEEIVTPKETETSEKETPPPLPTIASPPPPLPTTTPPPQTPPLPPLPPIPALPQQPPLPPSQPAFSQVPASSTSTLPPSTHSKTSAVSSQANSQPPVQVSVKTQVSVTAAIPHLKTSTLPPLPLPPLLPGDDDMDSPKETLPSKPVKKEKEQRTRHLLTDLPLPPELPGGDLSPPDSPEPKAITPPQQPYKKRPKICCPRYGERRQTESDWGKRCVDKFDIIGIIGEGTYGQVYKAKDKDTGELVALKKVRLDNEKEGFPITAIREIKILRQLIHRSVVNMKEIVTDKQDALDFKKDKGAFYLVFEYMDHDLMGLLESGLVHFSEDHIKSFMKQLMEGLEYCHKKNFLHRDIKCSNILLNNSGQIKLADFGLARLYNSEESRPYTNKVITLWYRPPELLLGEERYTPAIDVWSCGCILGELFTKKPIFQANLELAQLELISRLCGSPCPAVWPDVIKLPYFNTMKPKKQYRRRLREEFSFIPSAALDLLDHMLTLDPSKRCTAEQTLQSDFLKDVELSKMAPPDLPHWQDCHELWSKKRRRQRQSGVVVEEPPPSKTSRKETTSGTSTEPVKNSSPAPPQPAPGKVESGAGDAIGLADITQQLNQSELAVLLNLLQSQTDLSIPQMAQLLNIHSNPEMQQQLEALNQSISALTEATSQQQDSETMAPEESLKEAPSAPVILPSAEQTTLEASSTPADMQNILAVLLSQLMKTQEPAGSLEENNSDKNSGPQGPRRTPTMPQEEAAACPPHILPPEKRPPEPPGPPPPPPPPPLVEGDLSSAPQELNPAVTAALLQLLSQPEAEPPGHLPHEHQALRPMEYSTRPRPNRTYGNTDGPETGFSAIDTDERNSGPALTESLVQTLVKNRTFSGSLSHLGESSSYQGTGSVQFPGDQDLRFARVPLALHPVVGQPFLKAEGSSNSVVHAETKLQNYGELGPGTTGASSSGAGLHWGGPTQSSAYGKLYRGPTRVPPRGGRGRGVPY

As for `Brc1cnn2c(NCc3nc4ccccc4[nH]3)nc(N3C[C@H]4CCCN[C@H]4C3)nc12` [Example 199, N-[(1H-benzimidazol-2-yl)methyl]-8-bromo-2-[(4aR, 7aR)-octahydro-6H-pyrrolo[3,4-b]pyridin-6-yl]pyrazolo[1,5-a][1,3,5]triazin-4-amine], the DC50 in experiment [1] was determined as 2.32 nM. Also, in experiment [2], the IC50 is 5170 nM.
In the case of `OC[C@@H]1CCCCN1c1nc(NCc2nc3c(F)c(F)ccc3[nH]2)n2ncc(C3CC3)c2n1` [Example 184, [(2S)-1-(8-cyclopropyl-4-{[(4,5-difluoro-1H-benzimidazol-2-yl)methyl]amino}pyrazolo[1,5-a][1,3,5]triazin-2-yl)piperidin-2-yl]methanol], the DC50 in experiment [1] is 0.929 nM. Also, the IC50 in experiment [2] came out at 2720 nM.
Regarding `Cc1ccc2[nH]c(CNc3nc(N4C[C@H]5C[C@@H]4CO5)nc4c(Br)cnn34)nc2c1` [Example 192, 8-bromo-N-[(5-methyl-1H-benzimidazol-2-yl)methyl]-2-[(1R,4R)-2-oxa-5-azabicyclo[2.2.1]heptan-5-yl]pyrazolo[1,5-a][1,3,5]triazin-4-amine], the DC50 in experiment [1] stood at 0.589 nM. Also, in experiment [2], the IC50 turned out to be 4170 nM.
For `CN1CCN(c2nc(NCc3nc4ccccc4[nH]3)n3ncc(Br)c3n2)CC1` [Example 18, N-[(1H-benzimidazol-2-yl)methyl]-8-bromo-2-(4-methylpiperazin-1-yl)pyrazolo[1,5-a][1,3,5]triazin-4-amine], the DC50 in experiment [1] is 1.39 nM. Further, the IC50 in experiment [2] came to 6290 nM.
Consider `Fc1ccc2[nH]c(CNc3nc(N4C[C@@H]5CCCN[C@@H]5C4)nc4c(C5CC5)cnn34)nc2c1` [Example 180, 8-cyclopropyl-N-[(5-fluoro-1H-benzimidazol-2-yl)methyl]-2-[(4aS, 7aS)-octahydro-6H-pyrrolo[3,4-b]pyridin-6-yl]pyrazolo[1,5-a][1,3,5]triazin-4-amine], for which the DC50 in experiment [1] worked out at 0.859 nM. Besides, the IC50 in experiment [2] was > 20000 nM.
In the same order, the values of `Fc1ccc2[nH]c(CNc3nc(N4CCOCC4)nc4c(C5CC5)cnn34)nc2c1F` [Example 172, 8-cyclopropyl-N-[(4,5-difluoro-1H-benzimidazol-2-yl)methyl]-2-(morpholin-4-yl)pyrazolo[1,5-a][1,3,5]triazin-4-amine] are 0.894 nM and > 20000 nM.
With `Fc1cccc2[nH]c(CNc3nc(N4CCNCC4)nc4c(C5CC5)cnn34)nc12` [Example 182, 8-cyclopropyl-N-[(4-fluoro-1H-benzimidazol-2-yl)methyl]-2-(piperazin-1-yl)pyrazolo[1,5-a][1,3,5]triazin-4-amine], the DC50 in experiment [1] was found to be 0.103 nM. Moreover, in experiment [2], the IC50 was > 20000 nM.
Consider `Cc1ccc2[nH]c(CNc3nc(N4C[C@@H]5CCCN[C@@H]5C4)nc4c(Br)cnn34)nc2c1` [Example 203, 8-bromo-N-[(5-methyl-1H-benzimidazol-2-yl)methyl]-2-[(4aS, 7aS)-octahydro-6H-pyrrolo[3,4-b]pyridin-6-yl]pyrazolo[1,5-a][1,3,5]triazin-4-amine], for which the DC50 in experiment [1] amounted to 0.119 nM. The IC50 in experiment [2] was 9300 nM.
Regarding `CCNc1nc(NCc2nc3ccccc3[nH]2)n2ncc(Br)c2n1` [Example 227, N4-(1H-benzimidazol-2-ylmethyl)-8-bromo-N2-ethyl-pyrazolo[1,5-a][1,3,5]triazine-2,4-diamine], the DC50 in experiment [1] is 2.7 nM. Besides, the IC50 in experiment [2] is 1870 nM.
Consider `CN1CC2CN(c3nc(NCc4nc5ccccc5[nH]4)n4ncc(Br)c4n3)CC2C1` (centres unmarked) [Example 240, N-(1H-benzimidazol-2-ylmethyl)-8-bromo-2-(2-methyl-1,3,3a,4,6,6a-hexahydropyrrolo[3,4-c]pyrrol-5-yl)pyrazolo[1,5-a][1,3,5]triazin-4-amine], for which, in experiment [1], the DC50 was 1.09 nM. Also, the IC50 in experiment [2] was 15500 nM.
In the same order, the values of `Fc1ccc2[nH]c(CNc3nc(N4C[C@@H]5C[C@H]4CO5)nc4c(C5CC5)cnn34)nc2c1F` [Example 173, 8-cyclopropyl-N-[(4,5-difluoro-1H-benzimidazol-2-yl)methyl]-2-[(1S,4S)-2-oxa-5-azabicyclo[2.2.1]heptan-5-yl]pyrazolo[1,5-a][1,3,5]triazin-4-amine] are 1.03 nM and > 20000 nM.
As to `COc1cccc2[nH]c(CNc3nc(N4CCOCC4)nc4c(C5CC5)cnn34)nc12` [Example 213, 8-cyclopropyl-N-[(4-methoxy-1H-benzimidazol-2-yl)methyl]-2-morpholino-pyrazolo[1,5-a][1,3,5]triazin-4-amine], in experiment [1], the DC50 is 1.55 nM. The IC50 in experiment [2] came out at 5490 nM.
Consider `CC(C)(O)CNc1nc(NCc2nc3ccccc3[nH]2)n2ncc(Br)c2n1` [Example 229, 1-[(4-{[(1H-benzimidazol-2-yl)methyl]amino}-8-bromopyrazolo[1,5-a][1,3,5]triazin-2-yl)amino]-2-methylpropan-2-ol], for which the DC50 in experiment [1] came out at 0.39 nM. Besides, the IC50 in experiment [2] came to 1460 nM.
Turning to `COc1ccc2[nH]c(CNc3nc(N4C[C@@H](C)N[C@@H](C)C4)nc4c(Br)cnn34)nc2c1` [Example 205, 8-bromo-2-[(3R,5S)-3,5-dimethylpiperazin-1-yl]-N-[(5-methoxy-1 H-benzimidazol-2-yl)methyl]pyrazolo[1,5-a][1,3,5]triazin-4-amine], in experiment [1], the DC50 came out at 0.279 nM. Besides, the IC50 in experiment [2] is > 20000 nM.
As for `Fc1cccc2[nH]c(CNc3nc(N4C[C@@H]5C[C@H]4CO5)nc4c(C5CC5)cnn34)nc12` [Example 183, 8-cyclopropyl-N-[(4-fluoro-1H-benzimidazol-2-yl)methyl]-2-[(1S,4S)-2-oxa-5-azabicyclo[2.2.1]heptan-5-yl]pyrazolo[1,5-a][1,3,5]triazin-4-amine], in experiment [1], the DC50 is 1.64 nM. Also, the IC50 in experiment [2] is > 20000 nM.
Regarding `CN(CCO)c1nc(NCc2nc3ccccc3[nH]2)n2ncc(Br)c2n1` [Example 237, 2-[(4-{[(1H-benzimidazol-2-yl)methyl]amino}-8-bromopyrazolo[1,5-a][1,3,5]triazin-2-yl)(methyl)amino]ethan-1-ol], the DC50 in experiment [1] was 19.7 nM. The IC50 in experiment [2] was found to be 4940 nM.
For the compound `C[C@@H]1CN(c2nc(NCc3nc4ccccc4[nH]3)n3ncc(Br)c3n2)CCN1` [Example 168, N-[(1H-benzimidazol-2-yl)methyl]-8-bromo-2-[(3R)-3-methylpiperazin-1-yl]pyrazolo[1,5-a][1,3,5]triazin-4-amine], the DC50 in experiment [1] worked out at 0.973 nM. Besides, the IC50 in experiment [2] stood at 12300 nM.
Take `C[C@@H]1CN(c2nc(NCc3nc4c(F)c(F)ccc4[nH]3)n3ncc(C4CC4)c3n2)C[C@H](C)N1` [Example 170, 8-cyclopropyl-N-[(4,5-difluoro-1H-benzimidazol-2-yl)methyl]-2-[(3R,5S)-3,5-dimethylpiperazin-1-yl]pyrazolo[1,5-a][1,3,5]triazin-4-amine]: the DC50 in experiment [1] was determined as 0.415 nM. Moreover, in experiment [2], the IC50 is > 20000 nM.
Consider `CO[C@H]1CCN(c2nc(NCc3nc4ccccc4[nH]3)n3ncc(Br)c3n2)C1` [Example 222, N-[(1H-benzimidazol-2-yl)methyl]-8-bromo-2-[(3S)-3-methoxypyrrolidin-1-yl]pyrazolo[1,5-a][1,3,5]triazin-4-amine], for which, in experiment [1], the DC50 came out at 3.05 nM. The IC50 in experiment [2] is 14600 nM.
As for `Cc1ccc2[nH]c(CNc3nc(N4C[C@H]5C[C@@H]4CO5)nc4c(C5CC5)cnn34)nc2c1` [Example 196, 8-cyclopropyl-N-[(5-methyl-1H-benzimidazol-2-yl)methyl]-2-[(1R,4R)-2-oxa-5-azabicyclo[2.2.1]heptan-5-yl]pyrazolo[1,5-a][1,3,5]triazin-4-amine], the DC50 in experiment [1] is 2.29 nM. In experiment [2], the IC50 is > 19800 nM.
With `Fc1cccc2[nH]c(CNc3nc(N4CCOCC4)nc4c(C5CC5)cnn34)nc12` [Example 188, 8-cyclopropyl-N-[(4-fluoro-1H-benzimidazol-2-yl)methyl]-2-(morpholin-4-yl)pyrazolo[1,5-a][1,3,5]triazin-4-amine], the DC50 in experiment [1] turned out to be 0.815 nM. The IC50 in experiment [2] came out at 15000 nM.
The corresponding values for `OC1CCN(c2nc(NCc3nc4ccccc4[nH]3)n3ncc(Br)c3n2)CC1` [Example 17, 1-(4-{[(1H-benzimidazol-2-yl)methyl]amino}-8-bromopyrazolo[1,5-a][1,3,5]triazin-2-yl)piperidin-4-ol] are 4.63 nM and 2890 nM.
Regarding `CN1CC[C@@H]2CN(c3nc(NCc4nc5ccccc5[nH]4)n4ncc(Br)c4n3)C[C@@H]21` [Example 217, N-[(1H-benzimidazol-2-yl)methyl]-8-bromo-2-[(3aR,6aR)-1-methylhexahydropyrrolo[3,4-b]pyrrol-5 (1H)-yl]pyrazolo[1,5-a][1,3,5]triazin-4-amine], in experiment [1], the DC50 stood at 4.56 nM. Besides, in experiment [2], the IC50 is > 20000 nM.
For `Cc1ccc2[nH]c(CNc3nc(N4CCN(C)CC4)nc4c(C5CC5)cnn34)nc2c1` [Example 210, 8-cyclopropyl-N-[(5-methyl-1H-benzimidazol-2-yl)methyl]-2-(4-methylpiperazin-1-yl)pyrazolo[1,5-a][1,3,5]triazin-4-amine], the DC50 in experiment [1] came out at 0.199 nM. For the same compound, the IC50 in experiment [2] was > 20000 nM.
In the case of `Brc1cnn2c(NCc3nc4ccccc4[nH]3)nc(N3CC4CCC3CN4)nc12` (centres unmarked) [Example 220, N-(1H-benzimidazol-2-ylmethyl)-8-bromo-2-(2,5-diazabicyclo[2.2.2]octan-2-yl)pyrazolo[1,5-a][1,3,5]triazin-4-amine], in experiment [1], the DC50 is 1.14 nM. In addition, in experiment [2], the IC50 came to 908 nM.
